Data reported in article PMC5095062, “The novel choline kinase inhibitor ICL-CCIC-0019 reprograms cellular metabolism and inhibits cancer cell growth” (Oncotarget, 2016).

What was measured:
HCT116 xenografts = assay: Kinetic modeling of [18F]-D4-FCH PET data; assay type: in vivo, BALB/c nude mice
Description: We employed kinetic modeling to further characterize ICL-CCIC-0019-mediated choline kinase inhibition in vivo. Whereas normalized tissue uptake values reflect tracer concentration in a 3-dimensional region of interest, kinetic modeling accounts for tissue uptake relative to plasma. A two-tissue irreversible compartmental model, as previously reported, was employed with the hypothesis that k3 would represent the rate by which the tracer is phosphorylated by choline kinase, (Supplementary Figure S2C). Although this enzymatic reaction is in principle reversible, it was assumed that the high dependency of cancer cells to incorporate choline made it unlikely that catalytic hydrolysis of PCho prevails. Best fits and more physiological parameters were obtained with a 3k (excluding k4) instead of a 4k model. […] In all examined tissues, the blood volume Vb decreased initially after treatment (Supplementary Figure S2D). These perfusion deficits were more pronounced and persistent in tumor compared to liver and kidney. To rule out that these kinetic changes are solely due to choline transport inhibition, we analyzed the choline metabolites of [^18F]-D4-FCH in HCT116 cells treated with ICL-CCIC-0019. As expected for CHKA inhibition, ICL-CCIC-0019 decreased the [^18F]-D4-PCho peak, changing the relative ratio of [^18F]-D4-Cho:[^18F]-D4-PCho from 72:28 in the vehicle control to 87:13 in the treatment group (Supplementary Figure S2E–S2F).
Kinetic analysis of PET data was performed applying a standard two-tissue irreversible compartmental model described in detail elsewhere.

HCT116 cells [1] = assay: TMRE mitochondrial membrane potential assay; assay type: cell-based, human; conditions: 10 μM, 24 h
Protocol: HCT116 cells were cultured as above with indicated inhibitors and subject to the tetramethylrhodamine ethyl ester dye method (TMRE) membrane potential assay according to the manufacturers instruction (Abcam ab113852) prior to FACS analysis.

HCT116 cells [2] = assay: Cell membrane integrity assay (LDH release); assay type: cell-based, human; conditions: 1–25 μM, 4 h
Protocol: Cell membrane integrity was assessed using a fluorescent kit measuring lactate dehydrogenase (LDH) release (CytoTox-ONETM, Promega) according to manufacturer's instructions.

HCT116 cells [3] = assay: DNA cell cycle analysis (flow cytometry, propidium iodide); assay type: cell-based, human
Protocol: Supernatant and cells were harvested, washed and centrifuged. The cell pellet was resuspended it 1 mL ice-cold PBS and the suspension added to 9 mL 70% ethanol, while mixing gently. Cells were fixed for at least 2 hours at −20°C. Cells were centrifuged and rehydrated in 3 mL cold PBS for 15 minutes. Samples were stained in 500 μL buffer containing 100 mM Tris pH 7.4, 150 mM NaCl, 1 mM CaCl2, 0.5 mM MgCl2, 0.1% Triton X-100, 0.1 mg/ml RNase A, 50 μg/ml propidium iodide (all items from Sigma-Aldrich) at 37°C for 3 h protected from light. Data were acquired on a BD FACS Canto flow cytometer (BD Bioscience) and analyzed using FlowJo 7.6.4 software (Tree Star).

HCT116 cells [4] = assay: Reactive oxygen species assay; assay type: cell-based, human; conditions: 10 μM
Protocol: For ROS measurements, cells were seeded in 96-well plates and treated with indicated ICL-CCIC-0019 (10 μM), pro- and antioxidants (0.25% H2O2 and 5 mM N-acetyl cysteine, NAC; all from Sigma-Aldrich) for indicated times. C400 (Life Technologies) was added at a final concentration of 50 μM and incubated at 37°C for 15 minutes and fluorescence quantified.

[5] = tested on: panel of 131 human kinases; assay: Kinase selectivity screen (whole panel); assay type: biochemical; conditions: 10 μM
Protocol: The substantially less demanding synthesis of ICL-CCIC-0019 compared with MN58B bears additional advantages. […] This consequently diminished intracellular PCho concentration, and importantly, the incorporation of [^3H]-choline into lipids (Figure 1D). […] To assess kinase specificity, ICL-CCIC-0019 was tested against a panel of 131 human kinases (Figure 1E and Supplementary Table S1). […] Inhibition greater than 20% was attained for insulin-like growth factor 1 (IGF-1R, 35 ± 7% inhibition), mitogen-activated protein kinase-activated protein kinase 3 (MAPKAP-K3, 33 ± 6%), extracellular signal regulated kinase 8 (ERK8, 31 ± 4%), ribosomal S6 kinase 1 (RSK1, 22 ± 6%), and v-erb-a erythroblastic leukemia viral oncogene homolog 4 (HER4, 21 ± 7%).

[6] = Plasma metabolite analysis by LC-MS; assay type: in vivo, BALB/c mice; conditions: pooled 2-hour plasma samples
Protocol: Plasma pharmacokinetic parameters of ICL-CCIC-0019 were established in female BALB/c mice aged 6–8 weeks (Harlan). Mice were intraperitoneally (i.p.) or perorally (p.o.) administered a single dose of 10 mg/kg and blood collected by cardiac puncture after 5, 15, 30 minutes and 1, 2, 4, 6 and 24 h. For tissue pharmacokinetic studies, HCT116 xenograft bearing mice were administered 10 mg/kg ICL-CCIC-0019 i.p. and blood collected after 5 minutes, 2, 6 and 24 h. Plasma was obtained by centrifugation at 1000 × g for 10 minutes. Samples were snap-frozen and stored at −80°C prior to analysis. Analysis was carried out by Cyprotex Inc. using liquid chromatography–mass spectrometry (LC–MS). For analysis of plasma metabolites, 2-hour samples of tissue pharmacokinetic studies were pooled.

[7] = biological target: T1, recombinant human Δ49N CHKA2 (Homo sapiens, UniProt P35790); assay: Enzymatic inhibition of choline kinase activity; assay type: biochemical
T1 sequence (P35790 50-457 limits assumed, stated change not applied): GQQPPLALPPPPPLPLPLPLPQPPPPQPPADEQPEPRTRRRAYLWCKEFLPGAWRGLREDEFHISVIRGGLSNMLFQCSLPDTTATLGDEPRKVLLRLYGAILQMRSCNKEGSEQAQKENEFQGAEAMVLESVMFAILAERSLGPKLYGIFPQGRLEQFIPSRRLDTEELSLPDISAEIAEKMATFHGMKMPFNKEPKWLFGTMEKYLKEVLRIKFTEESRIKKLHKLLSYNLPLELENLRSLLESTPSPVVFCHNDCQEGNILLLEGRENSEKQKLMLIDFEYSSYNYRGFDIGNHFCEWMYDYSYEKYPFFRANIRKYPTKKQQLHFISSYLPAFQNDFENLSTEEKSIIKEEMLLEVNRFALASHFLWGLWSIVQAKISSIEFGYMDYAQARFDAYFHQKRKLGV
Protocol: (§1) Enzymatic kinase activity, [^3H]choline to [^3H]PCho conversion and growth inhibition assays was conducted as previously described. [^3H]choline incorporation into soluble and lipid fractions was determined by a pulse-chase experiment. HCT116 cells were seeded at a density of 3 × 10^5 cell per well into 12-well plates and incubated overnight. Cells were treated with 1 or 10 μM ICL-CCIC-0019 for 1 h and pulsed in presence of inhibitor with 18.5 kBq/mL [^3H]choline chloride in 500 μL for 1 additional h. Cells were briefly rinsed with RPMI and incubated with fresh, non-radioactive medium for 6 h. Metabolites were extracted as described elsewhere, but additionally the radioactivity of the choline-containing and chloroform (lipid-containing) fractions was measured. Uptake of radiolabeled metabolite-tracers was measured as described elsewhere. Antiproliferative activity was measured after 72 h continuous exposure to inhibitors by sulforhodamine B (SRB) assay as described elsewhere. Apoptosis was determined using Caspase 3/7 Glo assay (Promega) according to the manufacturer's instructions.

[8] = biological target: T1, recombinant human Δ49N CHKA2; conditions: cited from earlier work
HCT116 cells [9] = assay: [3H]acetate uptake; assay type: cell-based, human
Protocol: as §1

CN(C)c1cc[n+](CCCCCCCCCCCC[n+]2ccc(N(C)C)cc2)cc1 [ICL-CCIC-0019]
decrease of tumor K1 compared to control (HCT116 xenografts; 24 hours): 73% | decrease of tumor K1 compared to control (HCT116 xenografts; 48 hours): 75% | macro parameter Ki (net irreversible uptake rate) in tumor (HCT116 xenografts; 48 hours): significantly decreased | TMRE-detectable mitochondrial membrane potential (HCT116 cells [1]): decreased | LDH concentration in the supernatant (HCT116 cells [2]): did not elevate LDH concentration | increase of cells in G1 phase (HCT116 cells [3]; 10 μM, 24 h): 2 fold | increase of sub-G1 population (HCT116 cells [3]; 48 h): 3.7 fold | formation of reactive oxygen species (HCT116 cells [4]): not accompanied by formation of reactive oxygen species | inhibition in all 131 kinases [5]: ≤ 35% | number of kinases inhibited more than 20% ([5]; 131 kinases): 5 | metabolic stability in plasma [6]: metabolically stable | potency compared with MN58B ([7]; CHKA inhibition): equipotent to MN58B | potency relative to CK37 (times more potent) ([7]; CHKA inhibition): > 500 times | IC50 ([7]; read-out: IC50 of CHKA activity): 270 ± 60 nM | mode of CHKA inhibition [8]: competitive with choline, but not ATP | increase of acetate uptake (HCT116 cells [9]): 10 fold
